Measurements from patent US10092500B2, “Oral care compositions” (BASF SE, priority 2014, dated 2018).

Legend:
[1] = system: Multispecies saliva derived Biofilm; assay: Substantivity: multispecies saliva derived biofilm growth on pre-treated, rinsed hydroxyapatite surfaces; type: cell-based, human saliva; conditions: 24 hr on pre-treated hydroxyapatite
Experimental: The peg lids are transferred to a clear 96 well plate containing 200 μl of the designated treatments below in Jordan's with 5% sucrose. This peg/plate assembly is shaken for 5 mins and then incubated for 25 mins aerobically at 37 C. After 30 mins of treatment the two pegs is transferred to a 96 well plate containing 200 μl of water and it is rinsed for 10 min at 500 rpm. […] After incubation the peg lids are transferred to a rinse plate containing 200 μl of water for 5 minutes and then transferred to white 96 well plate containing 200 μl Bac-titer-Glo, this is shaken for 5 minutes and read for luminescence.

S. mutans (ATCC#25175) = assay: Inhibition of bacterial acid production (Bromo Cresol Purple broth, OD 588/427); type: cell-based; conditions: for Inhibition of bacterial acid production, in words: change of OD 588 / OD 427 (pH indicator)
Experimental: Method to observe the acid production of S. mutans in a medium containing a pH indicator and glucose. Observe how xylitol and the example polymers affect acid production: A culture of S. mutans (ATCC#25175) is grown statically overnight in 10 mL liquid broth (BHI) at 37° C. […] The no treatment control has 20 μl water added. To each experimental well 180 of the inoculated BCP broth is added. To the no inoculum control 20 μl water and 20 μl filter sterilized overnight culture broth are added. […] Both wavelengths are measured every hour for several hours but before evaporation became an issue. The plates are shaken for 10 seconds before reading.

[2] = system: Streptococcus mutans Biofilm; assay: Substantivity: S. mutans biofilm growth on pre-treated, rinsed hydroxyapatite surfaces; type: cell-based, S. mutans (ATCC#25175); conditions: 24 hr on pre-treated hydroxyapatite
Experimental: Method to evaluate the substantivity of polymers to hydroxy apatite surfaces and the effects these polymers have on the growth of Streptococcus mutans and Saliva derived biofilms: S. mutans (ATCC#25175) is inoculated into 10 mL BHI and incubated statically at 37° C. overnight. […] Hydroxy apatite coated peg lids are pellicle treated with sterile artificial saliva 200 μl/per well of a 96 well clear plate for 30 minutes at 37° C. aerobically. The peg lids are transferred to a clear 96 well plate containing 200 μl of the designated treatments below in Jordan's with 5% sucrose. […] After 30 mins of treatment the two pegs is transferred to a 96 well plate containing 200 μl of water and it is rinsed for 10 min at 500 rpm. […] After incubation the peg lids are transferred to a rinse plate containing 200 μl of water for 5 minutes and then transferred to white 96 well plate containing 200 μl Bac-titer-Glo, this is shaken for 5 minutes and read for luminescence.

[3] = system: Streptococcus mutans biofilm; assay: Prevention of S. mutans biofilm development on hydroxy apatite pegs (Bac-titer-Glo luminescence); type: cell-based; conditions: Controls column; 2% xylitol; 24 hr growth; negative = increase over control
Experimental: To evaluate the multispecies saliva and S. mutans biofilm preventing activity of polymers and control combinations of condensants S. mutans 25175 is inoculated into 10 mL BHI and incubated statically at 37° C. overnight. […] Hydroxy apatite coated peg lids are pellicle treated with sterile artificial saliva 200 μl/per well of a 96 well clear plate for 30 minutes at 37° C. aerobic. […] Test solutions are added to a desired final concentration and water is added to bring the final volume to 200 μl.

[4] = system: multispecies saliva biofilm; assay: Prevention of multispecies saliva biofilm development on hydroxy apatite pegs (Bac-titer-Glo luminescence); type: cell-based, pooled human saliva; conditions: Controls column; 2% xylitol; 24 hr growth
Experimental: To evaluate the multispecies saliva and S. mutans biofilm preventing activity of polymers and control combinations of condensants Hydroxy apatite (HA) coated surfaces of a 96 peg lid (Biosurface Technologies, Bozeman, Mont.) are pellicle treated with pooled human saliva 200 μl/per well of a 96 well clear plate for 30 minutes at 37° C. aerobically. Into each well of the growth plate, clear 96 well plate, 160 μl inoculated Brain Heart Infusion (BHI) broth is added. Test solutions are added to a desired final concentration and water is added to bring the final volume to 200 μl.

48 hour saliva biofilms = assay: Disruption of established 48 hour saliva biofilms; type: cell-based, pooled human saliva; conditions: treatment for 5 minutes; Active = 1000 ppm e-polylysine, Chelate = 0.1% Trilon Ca, Polymer = 1%; negative = increase over control
Experimental: Method to screen combinations of actives, example polymers and chelates to identify potential synergies for biofilm disruption: Polystyrene pegs are pellicle treated with fresh pooled human saliva for 30 minutes at 37° C. aerobically. […] The pegs are added to the growth media and incubated anaerobically 37° C. At 24 hr. the pegs are removed and transferred to a fresh plate containing 200 μl of sterile BHI. And incubated anaerobically for another 24 hr at 37° C. […] Following a 5 minute rinse at room temperature, the pegs are transferred to a treatment plate containing combinations of actives, chelate and polymers. This is followed a 5 minute treatment (shaking at 500 rpm). The treated pegs are transferred to a white 96 well plate containing 200 μl Bac-titer-Glo reagent—this is incubated at room temperature for 5 minutes (shaking) and read on a plate reader for luminescence.

SMILES: N=C(N)NCCC[C@H](N)C(=O)O [Arginine, L-arginine]
- % decrease in biofilm as compared to growth control (negative indicates increased biofilm) ([1]; % treatment 0.070%): −28%
- % decrease in biofilm as compared to growth control (negative indicates increased biofilm) ([1]; % treatment 0.140%): −20%
- % decrease in biofilm as compared to growth control (negative indicates increased biofilm) ([1]; % treatment 0.280%): −24%
- % decrease in biofilm as compared to growth control (negative indicates increased biofilm) ([1]; % treatment 0.560%): −22%
- % decrease in biofilm as compared to growth control (negative indicates increased biofilm) ([1]; % treatment 1.120%): 49%
- Mean Delta OD588 (stdev) (S. mutans (ATCC#25175); 1% treatment, pH 6.3): 1.054 (0.13)
- Inhibition of bacterial acid production, in words (S. mutans (ATCC#25175)): no acid inhibiting effects
- % decrease in biofilm as compared to growth control (negative indicates increased biofilm) ([2]; % treatment 0.070%): −40%
- % decrease in biofilm as compared to growth control (negative indicates increased biofilm) ([2]; % treatment 0.140%): −18%
- % decrease in biofilm as compared to growth control (negative indicates increased biofilm) ([2]; % treatment 0.280%): −59%
- % decrease in biofilm as compared to growth control (negative indicates increased biofilm) ([2]; % treatment 0.560%): −53%
- % decrease in biofilm as compared to growth control (negative indicates increased biofilm) ([2]; % treatment 1.120%): −29%

SMILES: OC[C@@H](O)[C@H](O)[C@@H](O)CO [Xylitol, xylitol]
- % decrease in biofilm as compared to growth control (negative indicates increased biofilm) ([1]; % treatment 1.120%): 14%
- % decrease in biofilm as compared to growth control (negative indicates increased biofilm) ([1]; % treatment 2.000%): 12%
- Prevention of Streptococcus mutans biofilm development, reduction from the untreated control [3]: −1%
- Mean Delta OD588 (stdev) (S. mutans (ATCC#25175); 0.1% treatment): 0.993 (0.099)
- Mean Delta OD588 (stdev) (S. mutans (ATCC#25175); 0.5% treatment): 0.841 (0.119)
- Mean Delta OD588 (stdev) (S. mutans (ATCC#25175); 1% treatment): 0.759 (0.081)
- Mean Delta OD588 (stdev) (S. mutans (ATCC#25175); 2% treatment): 0.734 (0.131)
- Inhibition of bacterial acid production, in words (S. mutans (ATCC#25175)): acid inhibition at all concentrations tested
- % decrease in biofilm as compared to growth control (negative indicates increased biofilm) ([2]; % treatment 1.120%): −11%
- % decrease in biofilm as compared to growth control (negative indicates increased biofilm) ([2]; % treatment 2.000%): −15%
- Prevention of multispecies saliva biofilm development, reduction from the untreated control [4]: 17%

SMILES: O=C(O)CCC(=O)O [succinic acid]
- Mean Delta OD588 (stdev) (S. mutans (ATCC#25175); 1% treatment, pH 7.4): 0.323 (0.107)
- Inhibition of bacterial acid production, in words (S. mutans (ATCC#25175)): no or little change demonstrating acid inhibiting effects

SMILES: O=C(O)CN(CCN(CC(=O)O)CC(=O)O)CC(=O)O [EDTA, ethylenediaminetetraacetic acid]
- Mean Delta OD588 (stdev) (S. mutans (ATCC#25175); 1% treatment, pH 7.0): 0.283 (0.086)
- Inhibition of bacterial acid production, in words (S. mutans (ATCC#25175)): no or little change demonstrating acid inhibiting effects

SMILES: CCCCCCCCCCCCCCCC[n+]1ccccc1 [Cetylpyridinium chloride]
- % decrease in biofilm as compared to growth control (negative indicates increased biofilm) ([1]; % treatment 0.070%): 98%
- % decrease in biofilm as compared to growth control (negative indicates increased biofilm) ([2]; % treatment 0.070%): 100%

SMILES: O=C(O)CC(O)(CC(=O)O)C(=O)O [citric acid]
- Mean Delta OD588 (stdev) (S. mutans (ATCC#25175); 1% treatment, pH 7.0): 0.196 (0.029)
- Inhibition of bacterial acid production, in words (S. mutans (ATCC#25175)): no or little change demonstrating acid inhibiting effects

SMILES: O=C([O-])CN(CCN(CC(=O)[O-])CC(=O)[O-])CC(=O)[O-].[Ca+2].[Na+].[Na+] [Trilon Ca, Ca EDTA]
- Disruption of 48 hour saliva biofilms, reduction from the No Treatment control (48 hour saliva biofilms): −10%
